Test results as given in ChEMBL document CHEMBL1201862, “PubChem BioAssay data set” (2004).
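In this assay, cells in 96-well plates receive the compound at five concentrations for 48 hours. Endpoints are linearly interpolated between the surrounding concentrations. GI50 marks 50% less growth.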 Activity calls are given as the source filed them. No stated cut-off is given here; in the data, active = GI50 up to about 1.1 µM and inactive = higher.

How the values were obtained:
Experiment in all cases: growth of human tumour cells (NCI), 48 h
ACHN = tested on: ACHN
CAKI-1 = tested on: CAKI-1
HT-29 = tested on: HT-29
LOX IMVI = tested on: LOX IMVI
OVCAR-5 = tested on: OVCAR-5
SF-268 = tested on: SF-268
SF-295 = tested on: SF-295
SF-539 = tested on: SF-539
SK-MEL-5 = tested on: SK-MEL-5
SK-OV-3 = tested on: SK-OV-3
SNB-19 = tested on: SNB-19
SR = tested on: SR
TK-10 = tested on: TK-10
UO-31 = tested on: UO-31
SK-MEL-2 = tested on: SK-MEL-2
COLO 205 = tested on: COLO 205

Measured: GI50

CC1(C)C=C(N2CCN(C3=CC(C)(C)NC(C)(C)C3)CC2)CC(C)(C)N1
inactive: ACHN > 100 µM | CAKI-1 > 100 µM | HT-29 > 100 µM | LOX IMVI > 100 µM | OVCAR-5 > 100 µM | SF-268 > 100 µM | SF-295 > 100 µM | SF-539 > 100 µM | SK-MEL-5 > 100 µM | SK-OV-3 > 100 µM | SNB-19 > 100 µM | SR > 100 µM | TK-10 > 100 µM | UO-31 > 100 µM

COc1ccc2c(c1)[n+]([O-])c(C(=O)CC(=O)C(=O)Nc1cccc(C)c1C)c(C)[n+]2[O-]
inactive: ACHN > 100 µM | CAKI-1 > 100 µM | HT-29 > 100 µM | LOX IMVI > 100 µM | OVCAR-5 > 100 µM | SF-268 > 100 µM | SF-295 > 100 µM | SF-539 > 100 µM | SK-MEL-2 > 100 µM | SK-MEL-5 > 100 µM | SK-OV-3 > 100 µM | SNB-19 > 100 µM | SR > 100 µM | TK-10 > 100 µM | UO-31 > 100 µM

CC(=O)CC(=O)Nc1ccc(OS(N)(=O)=O)cc1
inactive: ACHN > 100 µM | CAKI-1 > 100 µM | COLO 205 > 100 µM | HT-29 > 100 µM | OVCAR-5 > 100 µM | SF-268 > 100 µM | SF-295 > 100 µM | SF-539 > 100 µM | SK-MEL-2 > 100 µM | SK-MEL-5 > 100 µM | SK-OV-3 > 100 µM | SNB-19 > 100 µM | SR > 100 µM | TK-10 > 100 µM | UO-31 > 100 µM

Cc1ccc(N2C(=O)/C(=C3\Sc4c(nc(C)n(C)c4=O)N3c3ccccc3)SC2=S)cc1
inactive: ACHN > 100 µM | CAKI-1 41.3 µM | COLO 205 > 100 µM | HT-29 > 100 µM | LOX IMVI > 100 µM | OVCAR-5 > 100 µM | SF-268 34.6 µM | SF-295 52.7 µM | SF-539 15.3 µM | SK-MEL-2 > 100 µM | SK-MEL-5 83.8 µM | SK-OV-3 54.8 µM | SNB-19 49.4 µM | SR > 100 µM | TK-10 32.8 µM | UO-31 > 100 µM

CCOC(=O)/C(=C\c1ccc(OCc2ccccc2)c(OC)c1)C(=O)c1ccccc1
inactive: ACHN 18.1 µM | CAKI-1 24.7 µM | COLO 205 30.8 µM | LOX IMVI 15.9 µM | OVCAR-5 20.7 µM | SF-295 22.3 µM | SF-539 16.7 µM | SK-MEL-2 19.6 µM | SK-MEL-5 17.9 µM | SK-OV-3 64.9 µM | SNB-19 27.7 µM | SR 33 µM | TK-10 27.5 µM | UO-31 18.1 µM

COc1ccc(Cn2c(C)nc3c2C(=O)c2ccccc2C3=O)cc1
inactive: ACHN 10.3 µM | COLO 205 9.02 µM | HT-29 4.94 µM | LOX IMVI 2.52 µM | SF-268 4.49 µM | SF-295 9.48 µM | SF-539 3.81 µM | SK-MEL-2 13.2 µM | SK-MEL-5 7.71 µM | SK-OV-3 14.8 µM | SNB-19 22.3 µM | SR 1.44 µM | TK-10 11 µM | UO-31 10.5 µM

O=C1OC(Cc2ccccc2)(N2CCCC2=O)C1c1ccccc1 (stereo unspecified)
inactive: ACHN 75.2 µM | CAKI-1 > 100 µM | COLO 205 > 100 µM | HT-29 > 100 µM | OVCAR-5 > 100 µM | SF-268 > 100 µM | SF-295 > 100 µM | SK-MEL-2 > 100 µM | SK-MEL-5 51.5 µM | SK-OV-3 73.1 µM | SNB-19 47.2 µM | SR 56.4 µM | TK-10 > 100 µM | UO-31 > 100 µM

CC(=O)OCc1c2ccccc2c(C)c2c1cc(F)c1ccccc12
inactive: ACHN 17.5 µM | CAKI-1 31 µM | COLO 205 16.2 µM | HT-29 17.7 µM | LOX IMVI 18.5 µM | OVCAR-5 42.7 µM | SF-268 29.8 µM | SF-295 29.6 µM | SF-539 23.8 µM | SK-MEL-2 15.2 µM | SK-MEL-5 25.5 µM | SK-OV-3 52.5 µM | SNB-19 28.9 µM | SR 12.6 µM | TK-10 > 100 µM | UO-31 38 µM

Cc1ccc(/C=N\NC2c3cc(Cl)ccc3Nc3nc(O)nc(C)c32)cc1 (stereo unspecified)
inactive: ACHN > 100 µM | COLO 205 58.1 µM | HT-29 > 100 µM | LOX IMVI > 100 µM | SF-268 > 100 µM | SF-295 > 100 µM | SF-539 > 100 µM | SK-MEL-2 > 100 µM | SK-OV-3 > 100 µM | SNB-19 > 100 µM | SR 7.29 µM | TK-10 > 100 µM | UO-31 > 100 µM

COC(=O)C(=O)C(CC(=O)Nc1cc(Cl)ccc1Cl)C(=O)OC (stereo unspecified)
inactive: ACHN > 100 µM | CAKI-1 > 100 µM | COLO 205 > 100 µM | HT-29 > 100 µM | LOX IMVI > 100 µM | OVCAR-5 > 100 µM | SF-268 > 100 µM | SF-295 > 100 µM | SF-539 > 100 µM | SK-MEL-2 > 100 µM | SK-MEL-5 > 100 µM | SK-OV-3 > 100 µM | SNB-19 > 100 µM | SR > 100 µM | TK-10 > 100 µM | UO-31 > 100 µM

CC(=S)NNC(=O)c1ccncc1
inactive: ACHN > 100 µM | CAKI-1 > 100 µM | COLO 205 > 100 µM | HT-29 > 100 µM | LOX IMVI > 100 µM | OVCAR-5 > 100 µM | SF-268 > 100 µM | SF-295 > 100 µM | SF-539 > 100 µM | SK-MEL-2 > 100 µM | SK-MEL-5 > 100 µM | SK-OV-3 > 100 µM | SNB-19 > 100 µM | SR > 100 µM | TK-10 > 100 µM | UO-31 > 100 µM

Cc1ccc(S(=O)OC23CC4CC(CC(C4)C2)C3)cc1 (stereo unspecified)
inactive: ACHN > 100 µM | CAKI-1 > 100 µM | COLO 205 > 100 µM | HT-29 > 100 µM | LOX IMVI 39.2 µM | OVCAR-5 > 100 µM | SF-268 86.1 µM | SF-295 > 100 µM | SF-539 > 100 µM | SK-MEL-5 > 100 µM | SK-OV-3 > 100 µM | SNB-19 > 100 µM | SR 35.7 µM | TK-10 > 100 µM | UO-31 41.2 µM

[O-][Cl+3]([O-])([O-])O.c1ccc(/N=c2\nc(N3CCOCC3)ss2)cc1
inactive: ACHN 16.5 µM | CAKI-1 20.2 µM | HT-29 20 µM | LOX IMVI 16 µM | OVCAR-5 28.9 µM | SF-268 16 µM | SF-295 18.7 µM | SF-539 18.3 µM | SK-MEL-2 17.9 µM | SK-MEL-5 34.2 µM | SK-OV-3 > 100 µM | SNB-19 30.5 µM | SR 16.6 µM | TK-10 46.5 µM | UO-31 28.6 µM

COc1ccc(C2=C(Cl)c3cc(OC)c(OC)cc3C2)cc1OC
inactive: ACHN > 100 µM | COLO 205 > 100 µM | HT-29 > 100 µM | SF-268 > 100 µM | SF-295 > 100 µM | SF-539 > 100 µM | SK-MEL-5 > 100 µM | SK-OV-3 > 100 µM | SNB-19 > 100 µM | SR > 100 µM | UO-31 > 100 µM

COc1ccc(CCNCc2cccc(OC)c2OC)cc1OC
inactive: ACHN > 100 µM | CAKI-1 > 100 µM | COLO 205 > 100 µM | HT-29 88.7 µM | LOX IMVI > 100 µM | OVCAR-5 > 100 µM | SF-268 > 100 µM | SF-295 > 100 µM | SK-MEL-2 > 100 µM | SK-MEL-5 > 100 µM | SK-OV-3 > 100 µM | SNB-19 > 100 µM | TK-10 > 100 µM | UO-31 > 100 µM

COC(=O)C1=C(c2cc(OC)c(OC)c(OC)c2)OC(c2cc(OC)c(OC)c(OC)c2)C1 (stereo unspecified)
inactive: ACHN 20.2 µM | CAKI-1 21.8 µM | COLO 205 16.4 µM | HT-29 24.3 µM | LOX IMVI 17.9 µM | OVCAR-5 33.3 µM | SF-268 46.2 µM | SF-295 20.5 µM | SF-539 34.4 µM | SK-MEL-5 16 µM | SK-OV-3 25.6 µM | SNB-19 19.5 µM | SR 18 µM | TK-10 25 µM | UO-31 12.3 µM

CC(CC[C@@H](C)C1CCC2[C@@H]3CC(O)C4CC(O)[C@@H](O)C[C@]4(C)C3CC[C@@]21C)C(C)(C)C (stereo partly specified)
inactive: ACHN > 100 µM | CAKI-1 > 100 µM | COLO 205 > 100 µM | HT-29 > 100 µM | LOX IMVI > 100 µM | OVCAR-5 > 100 µM | SF-268 > 100 µM | SF-295 > 100 µM | SF-539 > 100 µM | SK-MEL-2 > 100 µM | SK-MEL-5 > 100 µM | SK-OV-3 > 100 µM | SNB-19 > 100 µM | SR > 100 µM | TK-10 > 100 µM | UO-31 > 100 µM

CC(=O)N1CCN(c2ccc(OCC3COC(Cn4ccnc4)(c4ccc(Cl)cc4Cl)O3)cc2)CC1 (stereo unspecified) [KETOCONAZOLE]
inactive: ACHN 36.2 µM | CAKI-1 35.5 µM | COLO 205 20.1 µM | HT-29 18.9 µM | LOX IMVI 16.9 µM | OVCAR-5 30.3 µM | SK-MEL-2 17.4 µM | SK-MEL-5 12.2 µM | SK-OV-3 55.8 µM | SR 20.2 µM | TK-10 37.8 µM | UO-31 25.8 µM
